Format in all cases: cell-based, Escherichia coli
The test system of test [1] is E. coli K-12 BW25113 carrying ASKA plasmids. The test can be described thus: microbe, parasite or virus in culture. The following applies: for MIC: Escherichia coli; for MIC / MIC value of E. coli K-12 BW25113 carrying the empty plasmid of the ASKA library / MIC value of E. coli K-12 BW25113 carrying the pooled plasmids of the ASKA library: MS medium + 10 µg mL−1 CHL + 500 µM IPTG, 5 × 10^5 cells, 16–18 h, 37 °C. From the text:
Bacterial gene amplification generates extensive genetic variation that can provide drug resistance[37],[38]. As gene amplification events tend to be genetically unstable and reduce bacterial fitness, they are transient in nature. Using the ASKA library, which comprises each E. coli ORF cloned into an expression vector[40], we have conducted a global survey to evaluate whether artificially amplified genes provide resistance to any of the 14 AMPs and 11 antibiotics tested. As chloramphenicol (CHL) was used as a selection marker for the ASKA plasmid, this antibiotic was not tested in this screen. E. coli K-12 BW25113 cells were transformed with the pooled plasmids of the ASKA library, and the genetically mixed populations were exposed to increasing levels of AMP or antibiotic stresses, respectively. In all cases, the employed AMP or antibiotic dosages were above the MIC of the wild type. For each drug, we identified the MIC provided in the pooled ASKA plasmid library, and compared it to the MIC of the wild-type strain carrying the empty ASKA plasmid.
The ASKA library (a complete set of E. coli K-12 ORF archive) includes every E. coli ORF cloned into an expression vector (pCA24N)[65]. Prior to screening, the ASKA plasmid collection was pooled and transformed into E. coli K-12 BW25113 strain[66]. The plasmid pool was created by pooling an equal aliquot of cells, each carrying different members of the ASKA library, followed by plasmid miniprep. Next, the plasmid pool was electroporated into E. coli K-12 BW25113 competent cells. […] For the MICs measurements 500 000 cells were inoculated in each well which represents ~100 times coverage of each library member. […] Prior to the measurements the cell population containing the pooled overexpression library or the control strain containing the empty vector were grown in three replicates in LB medium supplemented with 20 µg/mL CHL. As the culture reached high density (i.e., OD600 > 0.8), expression of the plasmid was induced by 50 µM IPTG for 1 h. Following induction, 5 × 10^5 bacterial cells were inoculated in three replicates into each well of the 96-well plate and incubated for 16–18 h at 37 °C. Following incubation the MIC values were determined by measuring optical densities in a plate reader (Biotek Synergy).

Test [2] has as its system antibiotic- and AMP-adapted E. coli K-12 BW25113 lines. The test can be described thus: High-throughput fitness measurement of adapted lines (area under growth curve, drug-free medium). The following applies: adapted line APC1. From the text: We estimated fitness by measuring growth of these strains and the corresponding wild-type in antibiotic-free medium (“Methods”). […] As might be expected, fitness costs varied substantially across antibiotics and AMPs (Fig. 1b). […] This pattern is unlikely to reflect differences in the level of resistance between AMP and antibiotic strains, respectively. There is only a weak, marginally significant negative correlation between the level of resistance and fitness cost (Supplementary Fig. 1, Spearman’s rho = −0.24, P = 0.016 (N = 98)), and this correlation becomes non-significant after controlling for drug type (P = 0.6 and P = 0.39 for antibiotics (N = 60) and AMPs (N = 38) respectively, Spearman’s correlation).
Bacterial cell growth was assayed by continuously monitoring the optical density (OD600) of liquid cultures using 384-well microtiter plates containing MS medium, the same medium used during the laboratory evolution. Fitness was measured for a total of 60 antibiotic-adapted and the 38 AMP-adapted E. coli K-12 BW25113 lines (at least four lines per antibiotic or AMP). All measurements were performed twice (six technical replicates per experiment). Starter cultures were inoculated into 96-well plates containing MS medium and incubated for 20 h at 30 °C for E. coli K-12 BW25113 and its evolved lines. After this growth period, the OD600 of each culture was read and the starting cell number set to a final of 50,000 cells per well to a final volume of 60 µl. A total of 384-well plates were inoculated combining four different 96-well starter plates together: one plate having the unevolved wild-type control as a reference strain in all wells in order to estimate possible variation in growth within-plate measurement causing biases to the reading, and three plates containing the different set of antibiotic or AMP-adapted lines. Cell growth was monitored by measuring the optical density at 600 nm every 5 min (OD600 value, Biotek Synergy 2 microplate reader was used for this purpose). The integral data was calculated by the Biotek Gen5 Data Analysis Software between 1 and 24 h in case of E. coli K-12 BW25113 adapted lines. Because of possible influence of temperature equilibration in the first hour of measurement, this time period was excluded from the analysis.

The next test relates to E. coli K-12 BW25113. The test can be described thus: microbe, parasite or virus in culture. An excerpt: Unless otherwise indicated, Minimal Salt (MS) medium was used in all experiments, including the laboratory evolution experiments. In line with previous, methodologically relevant laboratory evolution studies, the physical conditions (including the medium) were the same during the course of laboratory evolution and all forthcoming assays on the resulting resistant lines (e.g. MIC measurements). We previously optimized this medium for studying AMPs (1 g L^−1 (NH4)2SO4, 3 g L^−1 KH2PO4 and 7 g L^−1 K2HPO4 supplemented with 0.1 mM MgSO4, 0.54 µg mL^−1 FeCl3, 1 µg mL^−1 thiamine hydrochloride, 0.2% Casamino acids and 0.2% glucose)[19]. This medium is highly controlled and provides a reproducible environment for experimental evolution experiments. All components were obtained from Sigma-Aldrich.
MICs were determined using a standard serial broth dilution technique. Briefly, 11-step serial dilutions were prepared in 96-well microtiter plates with three replicates per strain and antimicrobial compound. Each experiment was repeated at least twice. 5 × 10^5 cells/mL were inoculated into each well, and the plates were incubated at 30 °C in case of E. coli K-12 BW25113, and its antibiotic and AMP-adapted lines, or 37 °C in case of the other bacterial species. […] Cell growth was monitored by measuring the optical density (OD600 value, Biotek Synergy 2 microplate reader was used for this purpose). […] Relative MIC was calculated as follows: MICrelative = MICevolved/MICcontrol.

Test [3] concerns E. coli K-12 BW25113 bearing the metagenomic plasmid library. The test can be described thus: Functional metagenomic screen of a soil library, gradient plate selection. The following applies: soil metagenomic library, 1.5–5 kb fragments, gradient plate, 30 °C, 24 h.
For test [4], the system named is E. coli K-12 BW25113 carrying single mutations. The test is described as follows: MIC change in single-mutation strains (basS L194R, mlaD a342del, waaY M1†). The following applies: mutations inserted individually into E. coli K-12 BW25113.
The mark [5] stands for this setting: BW25113, Replicate 1, read-out: MIC value of E. coli K-12 BW25113 carrying the empty plasmid of the ASKA library.
The mark [6] stands for this setting: BW25113, Replicate 1, read-out: MIC value of E. coli K-12 BW25113 carrying the pooled plasmids of the ASKA library.
Where [7] appears, read: BW25113, Replicate 2, read-out: MIC value of E. coli K-12 BW25113 carrying the empty plasmid of the ASKA library.
Where [8] appears, read: BW25113, Replicate 2, read-out: MIC value of E. coli K-12 BW25113 carrying the pooled plasmids of the ASKA library.
The mark [9] stands for this setting: BW25113, Replicate 3, read-out: MIC value of E. coli K-12 BW25113 carrying the empty plasmid of the ASKA library.
The mark [10] stands for this setting: BW25113, Replicate 3, read-out: MIC value of E. coli K-12 BW25113 carrying the pooled plasmids of the ASKA library.
Setting [11] is: replicate 1 (first line of the sheet).
Where [12] appears, read: Escherichia coli, BW25113, 24 h, read-out: MIC.

Like-named read-outs stand apart in the source and are kept apart here.

Take `CC1(C)S[C@@H]2[C@H](NC(=O)[C@H](N)c3ccccc3)C(=O)N2[C@H]1C(=O)O` [APC, Ampicillin]: the MIC in test [1] (setting [5]) came to 4 µg/mL; in test [1] (setting [6]) it was 256 µg/mL; in test [1] (setting [7]) it was 4 µg/mL; in test [1] (setting [8]), 256 µg/mL; in test [1] (setting [9]) it was 4 µg/mL; in test [1] (setting [10]), 256 µg/mL. Besides, the MIC in the test on E. coli K-12 BW25113 (setting [12]) turned out to be 6.2 µg/mL. Moreover, the “integral (measured integral data)” value in test [2] (setting [11]) came out at 10905.8; in test [2] (replicate 2), 12217.4; in test [2] (replicate 3), 11200; in test [2] (replicate 4), 11338.5; in test [2] (replicate 5) it was 13182.1. Besides, the “normalized integral (integral normalized to wild-type)” value in test [2] (setting [11]) is given as 0.2843; in test [2] (replicate 2) it was 0.3185; in test [2] (replicate 3), 0.292; in test [2] (replicate 4) it was 0.2956; in test [2] (replicate 5), 0.3436.
As to `NC[C@H]1O[C@H](O[C@H]2[C@H](O)[C@@H](O[C@H]3O[C@H](CO)[C@@H](O)[C@H](N)[C@H]3O)[C@H](N)C[C@@H]2N)[C@H](N)C[C@@H]1O` [TOB, Tobramycin], the MIC in test [1] (setting [5]) turned out to be 1.49 µg/mL; in test [1] (setting [6]), 2.15 µg/mL; in test [1] (setting [7]), 1.24 µg/mL; in test [1] (setting [8]), 2.58 µg/mL; in test [1] (setting [9]) it was 1.49 µg/mL; in test [1] (setting [10]), 2.58 µg/mL. Also, the MIC in the test with E. coli K-12 BW25113 (setting [12]) turned out to be 3.4 µg/mL. In addition, the “Number of resistant contig” value in test [3] turned out to be 13.
As to `COc1cc(Cc2cnc(N)nc2N)cc(OC)c1OC` [TRM, Trimethoprim], the “increment in resistance level by the pooled ASKA library” value in test [1] is 32 fold. In addition, the MIC in test [1] (setting [5]) was 2 µg/mL; in test [1] (setting [6]), 128 µg/mL; in test [1] (setting [7]) it was 2 µg/mL; in test [1] (setting [8]), 64 µg/mL; in test [1] (setting [9]) it was 2 µg/mL; in test [1] (setting [10]), 64 µg/mL. Besides, in the test on E. coli K-12 BW25113 (Escherichia coli, BW25113, 24 h), the MIC is 5.2 µg/mL. Also, the “Number of resistant contig” value in test [3] is 11.
Take `O=C(N[C@H](CO)[C@H](O)c1ccc([N+](=O)[O-])cc1)C(Cl)Cl` [CHL, Chloramphenicol]: the “Number of resistant contig” value in test [3] came to 7. Besides, the MIC in the test with E. coli K-12 BW25113 (setting [12]) amounted to 6.9 µg/mL.
For “GIINTLQKYYRVRGGRAVLSLPKEEQIGKSTRGRKRRKK [HBD3, Human beta-defensin-3, clinically relevant antimicrobial peptide with human origin]”, the entries for the “MIC value of E. coli K-12 BW25113 carrying the empty plasmid of the ASKA library” value in test [1] (Replicate 1), in test [1] (Replicate 2) and in test [1] (Replicate 3) were 195.36 µg/mL, 195.36 µg/mL and 281.31 µg/mL, respectively. In addition, the “MIC value of E. coli K-12 BW25113 carrying the pooled plasmids of the ASKA library” value was 405.09 µg/mL in test [1] (Replicate 1), 337.58 µg/mL in test [1] (Replicate 2) and 281.31 µg/mL in test [1] (Replicate 3). Further, the “resistance conferred by single mutations basS L194R, mlaD a342del, waaY M1† (in words)” value in test [4] was “conferred resistance”. For the same compound, in the test with E. coli K-12 BW25113 (starting wild-type strain of the evolution experiment, broth dilution, MS medium, 5 × 10^5 cells/mL, 30 °C, 24 h, MIC = OD600 < 0.05), the MIC was 1500 µg/mL.

The values are drawn from PMC6778101 (Nature Communications, 2019).
